Source: US6683103B2, “Sulfonamides for treatment of endothelin-mediated disorders” (Texas Biotechnology Corporation, priority 1997, dated 2004)
Like-named read-outs stand apart in the source and are kept apart here.

Assays:
human ETA receptors = biological target: T1, human ETA receptors (Homo sapiens, UniProt P25101); experiment: Binding Test #1: inhibition of 125I-ET-1 binding to ETA receptors (TE 671 cell membranes)
T1 construct: endogenous in cells; host or cells: TE 671 cells (ATCC HTB 139)
T1 sequence (P25101 21-427): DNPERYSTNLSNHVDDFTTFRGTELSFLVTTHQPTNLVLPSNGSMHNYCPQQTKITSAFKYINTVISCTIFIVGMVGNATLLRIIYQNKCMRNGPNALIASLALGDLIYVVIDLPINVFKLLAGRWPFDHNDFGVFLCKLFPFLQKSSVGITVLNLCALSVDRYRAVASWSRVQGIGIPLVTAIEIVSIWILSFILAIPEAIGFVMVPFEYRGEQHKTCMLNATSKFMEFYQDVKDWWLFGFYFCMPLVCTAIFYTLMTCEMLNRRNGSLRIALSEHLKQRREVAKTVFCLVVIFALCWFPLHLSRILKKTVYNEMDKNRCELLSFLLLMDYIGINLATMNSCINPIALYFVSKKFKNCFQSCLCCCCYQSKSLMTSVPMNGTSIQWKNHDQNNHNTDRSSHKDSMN
Procedure, shortened: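 Membranes from TE 671 cells (up to 8 μg protein) incubated with ¹²⁵I-ET-1 and compound (1 nM–100 μM final) in 30 mM HEPES pH 7.4, 150 mM NaCl, 5 mM MgCl2, 0.5% bacitracin, 16–18 h at 4 °C or alternatively at 24 °C. Nonspecific binding with 80 nM ET-1; bound pellet gamma-counted, % inhibition calculated, usually triplicate.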

human ETB receptor = biological target: T2, human ETB receptor (Homo sapiens, UniProt P24530); experiment: Binding Test #2: inhibition of 125I-ET-1 binding to ETB receptors (transfected COS7 cell membranes)
T2 construct: expressed in transfected cells; host or cells: COS7 cells
T2 sequence (P24530 27-442): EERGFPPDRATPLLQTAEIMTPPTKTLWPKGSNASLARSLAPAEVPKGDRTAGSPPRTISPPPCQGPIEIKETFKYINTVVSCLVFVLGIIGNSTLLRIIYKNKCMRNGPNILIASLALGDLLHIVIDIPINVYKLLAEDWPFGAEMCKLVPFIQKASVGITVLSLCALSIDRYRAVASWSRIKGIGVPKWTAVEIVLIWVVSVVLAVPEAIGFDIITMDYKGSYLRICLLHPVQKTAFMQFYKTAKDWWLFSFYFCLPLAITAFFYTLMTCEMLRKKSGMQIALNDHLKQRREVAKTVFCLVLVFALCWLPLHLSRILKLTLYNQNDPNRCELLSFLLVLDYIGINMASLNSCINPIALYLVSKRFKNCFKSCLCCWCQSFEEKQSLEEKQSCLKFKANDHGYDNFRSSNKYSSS
Procedure, shortened: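 Competition with 125I-ET-1 for binding to membranes from COS7 cells transfected with human ETB receptor, used at 1 μg/50 μl binding buffer. Membranes prepared in HEPES pH 7.4 with aprotinin, including a DNase/MnCl2 step at 37 °C for 30 min.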

[1] = Table 1, † incubation at 24° C., read-out: ETA
[2] = Table 1, † incubation at 24° C., read-out: ETB
[3] = Table 1, incubation at 4° C., read-out: ETA
[4] = Table 1, incubation at 4° C., read-out: ETB
[5] = Table 2, incubation at 4° C., read-out: ETA
[6] = Table 2, incubation at 4° C., read-out: ETB

Compound | IC50 (human ETA receptors; [1]) | IC50 (human ETB receptor; [2]) | IC50 (human ETA receptors; [3]) | IC50 (human ETB receptor; [4]) | further results
Cc1noc(NS(=O)(=O)c2ccsc2C(=O)c2ccc3c(c2)OCO3)c1Br [N-(4-bromo-3-methyl-5-isoxazolyl)-2-[(3,4-methylenedioxy)benzoyl]thiophene-3-sulfonamide] | 2 µM | 15 µM | – | – | –
Cc1noc(NS(=O)(=O)c2ccsc2CCc2ccc3c(c2)OCO3)c1Br [N-(4-bromo-3-methyl-5-isoxazolyl)-2-[(3,4-methylenedioxy)phenethyl]thiophene-3-sulfonamide] | 0.21 µM | 9.2 µM | – | – | –
Cc1ccc(NC(=O)c2sccc2S(=O)(=O)Nc2onc(C)c2Br)cc1 [N-(4-bromo-3-methyl-5-isoxazolyl)-2-[-(4-tolulylaminocarbonyl]thiophene-3-sulfonamide] | – | – | < 0.01 µM | 1.67 µM | –
Cc1noc(NS(=O)(=O)c2ccsc2C(=O)Nc2ccc(C(C)C)cc2)c1Br [N-(4-bromo-3-methyl-5-isoxazolyl)-2-[N-(4-isopropylphenyl)aminocarbonyl]thiophene-3-sulfonamide] | – | – | < 0.01 µM | 1.13 µM | –
CCC(C)c1ccc(NC(=O)c2sccc2S(=O)(=O)Nc2onc(C)c2Br)cc1 (stereo not drawn) [N-(4-bromo-3-methyl-5-isoxazolyl)-2-[N-(4-sec-butylphenyl)aminocarbonyl]thiophene-3-sulfonamide] | – | – | ~0.008 µM | 1.76 µM | –
Cc1noc(NS(=O)(=O)c2ccsc2C/C=C/c2ccc3c(c2)OCO3)c1Br [N-(4-bromo-3-methyl-5-isoxazolyl)-2-[trans-(3,4-methylenedioxy)cinnamyl]thiophene-3-sulfonamide] | 0.14 µM | 1.4 µM | – | – | –
Cc1noc(NS(=O)(=O)c2ccccc2-c2ccccc2)c1Br [N-(4-bromo-3-methyl-5-isoxazolyl)-2-biphenylsulfonamide] | – | – | – | – | IC50 (human ETA receptors; [5]): 0.00127 µM; IC50 (human ETA receptors; read-out: IC50 for ETA receptors): ~0.0016 µM; IC50 (human ETB receptor; [6]): 8.54 µM
CCCCc1sc2ccccc2c1S(=O)(=O)Nc1onc(C)c1Br [N-(4-bromo-3-methyl-5-isoxazolyl)-2-butylbenzo[b]thiophene-3-sulfonamide] | – | – | 0.0226 µM | ~3 µM | –
Cc1noc(NS(=O)(=O)c2c(C(=O)O)n(C)c3ccccc23)c1Br [N-(4-bromo-3-methyl-5-isoxazolyl)-2-carboxyl-1-methylidole-3-sulfonamide] | 0.59 µM | 104 µM | – | – | –
CCc1sc2ccc(C)cc2c1S(=O)(=O)Nc1onc(C)c1Br [N-(4-bromo-3-methyl-5-isoxazolyl)-2-ethyl-5-methylbenzo[b]thiophene-3-sulfonamide] | 1.89 ± 0.431 µM | 54.3 ± 2.6 µM | – | – | –
CCc1sc2ccccc2c1S(=O)(=O)Nc1onc(C)c1Br [N-(4-bromo-3-methyl-5-isoxazolyl)-2-ethylbenzo[b]thiophene-3-sulfonamide] | – | – | 0.0067 µM | 5.13 µM | –
Cc1noc(NS(=O)(=O)c2c(C(C)C)sc3ccccc23)c1Br [N-(4-bromo-3-methyl-5-isoxazolyl)-2-i-propylbenzo[b]thiophene-3-sulfonamide] | 0.03 µM | 10.7 µM | 0.005 µM | 5.7 µM | –
Cc1noc(NS(=O)(=O)c2c(C)sc3ccccc23)c1Br [N-(4-bromo-3-methyl-5-isoxazolyl)-2-methylbenzo[b]thiophene-3-sulfonamide] | – | – | 0.0486 µM | 3.5 µM | –
Cc1noc(NS(=O)(=O)c2c(Cc3ccccc3)sc3ccccc23)c1Br [N-(4-bromo-3-methyl-5-isoxazolyl)-2-n-benzylbenzo[b]thiophene-3-sulfonamide] | – | – | 0.0182 µM | ~1 µM | –
CCCc1sc2ccccc2c1S(=O)(=O)Nc1onc(C)c1Br [N-(4-bromo-3-methyl-5-isoxazolyl)-2-n-propylbenzo[b]thiophene-3-sulfonamide] | 0.074 µM | 16.6 µM | 0.024 µM | 7.95 µM | –
Cc1noc(NS(=O)(=O)c2ccsc2COc2ccc3c(c2)OCO3)c1Br [N-(4-bromo-3-methyl-5-isoxazolyl)-2-{[3,4-(methylenedioxy)phenoxy]methyl}thiophene-3-sulfonamide] | 0.302 µM | 6.61 µM | – | – | –

Compound | IC50 (human ETA receptors; [1]) | IC50 (human ETB receptor; [2]) | IC50 (human ETA receptors; [3]) | IC50 (human ETB receptor; [4]) | further results
Cc1ccc(/C=C/c2cc(-c3ccc(C)cc3)sc2S(=O)(=O)Nc2onc(C)c2Br)cc1 [N-(4-bromo-3-methyl-5-isoxazolyl)-3-(4-methyl-trans-styryl)-5-(4-tolyl)thiophene-2-sulfonamide] | 6.9 µM | 1.58 µM | – | – | –
Cc1ccc(Cc2cc(-c3ccc(C)cc3)sc2S(=O)(=O)Nc2onc(C)c2Br)cc1 [N-(4-bromo-3-methyl-5-isoxazolyl)-3-(4-methylbenzyl)-5-(4-tolyl)thiophene-2-sulfonamide] | 4.69 µM | 1.56 µM | – | – | –
Cc1ccc(CCc2cc(-c3ccc(C)cc3)sc2S(=O)(=O)Nc2onc(C)c2Br)cc1 [N-(4-bromo-3-methyl-5-isoxazolyl)-3-(4-methylphenethyl)-5-(4-tolyl)thiophene-2-sulfonamide] | 6.1 µM | 2.09 µM | – | – | –
Cc1noc(NS(=O)(=O)c2sccc2CCc2ccccc2)c1Br [N-(4-bromo-3-methyl-5-isoxazolyl)-3-(phenethyl)thiophene-2-sulfonamide] | 0.676 µM | 37.2 µM | 0.16 µM | 10.8 µM | –
Cc1noc(NS(=O)(=O)c2sccc2Sc2ccccc2)c1Br [N-(4-bromo-3-methyl-5-isoxazolyl)-3-(phenylthio)thiophene-2-sulfonamide] | 0.0801 µM | 3.68 µM | – | – | –
Cc1noc(NS(=O)(=O)c2sccc2CC=Cc2cc3c(cc2CO)OCO3)c1Br [N-(4-bromo-3-methyl-5-isoxazolyl)-3-[2-(hydroxymethyl)-4,5-(methylenedioxy)cinnamyl]thiophene-2-sulfonamide] | 0.0795 µM | 3.24 µM | – | – | –
Cc1cc2c(cc1C=CCc1ccsc1S(=O)(=O)Nc1onc(C)c1Br)OCO2 [N-(4-bromo-3-methyl-5-isoxazolyl)-3-[2-methyl-4,5-(methylenedioxy)cinnamyl]thiophene-2-sulfonamide] | ~0.1 µM | ~6 µM | – | – | –
Cc1cc2c(cc1CCc1ccsc1S(=O)(=O)Nc1onc(C)c1Br)OCO2 [N-(4-bromo-3-methyl-5-isoxazolyl)-3-[2-methyl-4,5-(methylenedioxy)phenethyl]thiophene-2-sulfonamide] | ~0.1 µM | ~5 µM | – | – | –
Cc1noc(NS(=O)(=O)c2sccc2/C=C/c2ccc3c(c2)OCO3)c1Br [N-(4-bromo-3-methyl-5-isoxazolyl)-3-[3,4-(methylenedioxy)-trans-styryl]thiophene-2-sulfonamide] | 0.218 µM | 10 µM | – | – | –
Cc1noc(NS(=O)(=O)c2sccc2CCc2ccc3c(c2)OCO3)c1Br [N-(4-bromo-3-methyl-5-isoxazolyl)-3-[3,4-(methylenedioxy)phenethyl]thiophene-2-sulfonamide] | 0.236 µM | 18 µM | – | – | –
Cc1noc(NS(=O)(=O)c2sccc2-c2ccc3c(c2)OCO3)c1Br [N-(4-bromo-3-methyl-5-isoxazolyl)-3-[(3,4-methylenedioxy)phenyl]thiophene-2-sulfonamide] | 0.5 µM | 79 µM | – | – | –
Cc1noc(NS(=O)(=O)c2cccc(-c3ccccc3)c2)c1Br [N-(4-bromo-3-methyl-5-isoxazolyl)-3-biphenylsulfonamide] | – | – | – | – | IC50 (human ETA receptors; [5]): ~0.03 µM; IC50 (human ETB receptor; [6]): 0.76 µM; IC50 (human ETB receptor; read-out: IC50 for ETB receptors): ~0.76 µM
Cc1ccsc1S(=O)(=O)Nc1onc(C)c1Br [N-(4-bromo-3-methyl-5-isoxazolyl)-3-methylthiophene-2-sulfonamide] | – | – | 0.651 µM | 7.15 µM | –
Cc1noc(NS(=O)(=O)c2sccc2Oc2ccccc2)c1Br [N-(4-bromo-3-methyl-5-isoxazolyl)-3-phenoxythiophene-2-sulfonamide] | – | – | 0.103 µM | 3.46 µM | –
Cc1noc(NS(=O)(=O)c2sccc2-c2ccccc2)c1Br [N-(4-bromo-3-methyl-5-isoxazolyl)-3-phenylthiophene-2-sulfonamide] | – | – | 0.0547 µM | 11.1 µM | –
Cc1noc(NS(=O)(=O)c2sccc2CC=Cc2cc3c(cc2COC2CCCCO2)OCO3)c1Br (stereo not drawn) [N-(4-bromo-3-methyl-5-isoxazolyl)-3-{2-[(tetrahydro-4H-pyran-2-ylxoy)methyl]-4,5-(methylenedioxy)cinnamyl}thiophene-2-sulfonamide] | 0.0967 µM | – | – | 4.14 µM | –
